Results reported in patent publication US4663323A, “Tetrazole derivatives, anti-ulcer composition containing the same and method for treating ulcers” (Otsuka Pharmaceutical Co., Ltd., priority 1984, dated 1987).
Read-outs that look alike come from different tables or passages of the source.

Key:
Acute Toxicity = details: rat, in vivo, po, male Wistar rats
Experimental: The test compounds were orally administered to male Wistar rats, and the half lethal dose (LD50) was measured.

gastric juice secretion = test: Shay rat pylorus ligation method (gastric juice secretion-inhibiting activity); format: in vivo, male Wistar rats; details: sc, 4 h, 100 mg/kg s.c., 30 min before pylorus ligation, measured 4 hours after ligation
Experimental: The pharmacological activities of the compouns (I) were tested by a Shay rat pylorus ligation method (cf. H. Shay et al: Gastroenterol., Vol. 5, page 43, 1945) which is the most popular method for testing of gastric juice secretion-inhibiting activity. The test was carried out by using male Wistar rats, weighing about 170 g and fasting for 24 hours.
Test compounds were administered 30 minutes before the pylorus ligation in a dose of 100 mg/kg in subcutaneous route, and the volume, total acidity and/or pepsin activity of the gastric juice were measured 4 hours after the ligation. As a control, a saline solution was administered instead of the test compound. The inhibitory ratio (%) of the test compounds were calculated when the inhibitory activities of the control were counted as zero (0).
(§1) In the table, the inhibitory ratio (%) was evaluated as follows: […]

Stress Ulcer = test: Stress Ulcer; format: in vivo, male Wistar rats; details: oral, 1×10^-3 mole in 0.5% CMC, before restraint and water dipping at 23° C. for 7 hours
Experimental: After male Wistar rats weighing about 170 g was fasted for 24 hours, the rats were restrained in a stress cage and dipped in water bath at 23° C. till chest of the animals. After 7 hours, the rats were killed and the stomach was isolated. Into the isolated stomach 10% formalin (8 ml) was poured and settled. The stomach was cut open at the greater curvature, and the length of each ulcer on the membrane was measured. Sum of the length of all ulcers was shown as ulcer index (UI). The test compound was orally administered to the rats before restraint in a stress cage in the form of 0.5% CMC suspension in a concentration of 1×10^-3 mole. As a control, only the solvent (CMC solution) was administered likewise.
The inhibitory ratio (%) of stress ulcer of the test compounds was calculated by the following equation: [formula]
as §1

[1] = saline control = 0, read-out: Inhibitory ratio, Pepsin activity
[2] = saline control = 0, read-out: Inhibitory ratio, Total acidity
[3] = saline control = 0, read-out: Inhibitory ratio, Volume of gastric juice

Structure (SMILES)	LD50 (Acute Toxicity) [mg/kg]	inhibition in vivo at 100 mg/kg (gastric juice secretion; [1]) [%]	inhibition in vivo at 100 mg/kg (gastric juice secretion; [2]) [%]	inhibition in vivo at 100 mg/kg (gastric juice secretion; [3]) [%]	Inhibitory ratio of stress ulcer (Stress Ulcer)
CCN(C(=O)CCCCSc1nnnn1C)C1CCCCC1 [Compound 3, N-Ethyl-N-cyclohexyl-5-(1-methyl-1,2,3,4-tetrazol-5-yl)thio-valeramide]	> 500	10 to 50	10 to 50	> 50	
CCc1ccc(-n2nnnc2CSCCC(=O)O)cc1 [Compound 53, 3-[1-(4-Ethylphenyl)-1,2,3,4-tetrazol-5-yl]-methylthio-propionic acid]				10 to 50	
CC(=O)N1CCN(C(=O)CCCSc2nnnn2C)CC1 [Compound 32, 1-Methyl-5-[3-(4-acetyl-1-piperazinylcarbonyl)propyl]thio-1,2,3,4-tetrazol]		10 to 50	10 to 50	10 to 50	
CCN(C(=O)CCCSc1nnnn1C)C1CCCC1 [Compound 29, N-Ethyl-N-cyclopentyl-4-(1-methyl-1,2,3,4-tetrazol-5-yl)thio-butyramide]		10 to 50	> 50	> 50	
Cn1nnnc1SCCCC(=O)Nc1ccc(S(N)(=O)=O)cc1 [Compound 41, N-(4-Sulfamoylphenyl)-4-(1-methyl-1,2,3,4-tetrazol-5-yl)thio-butyramide]				10 to 50	
COc1ccc(CCN(C(=O)CCCSc2nnnn2C)C2CCCCC2)cc1OC [Compound 11, N-Cyclohexyl-N-[2-(3,4,-dimethoxyphenyl)-ethyl]-4-(1-methyl-1,2,3,4-tetrazol-5-yl)thio-butyramide]	> 500	10 to 50	10 to 50	10 to 50	
CCN(CC)C(=O)CCSCc1nnnn1CC [Compound 14, N,N-Diethyl-3-(1-ethyl-1,2,3,4-tetrazol-5-yl)methylthio-propionamide]				10 to 50	++ (more than 60%)
Cc1c(Cl)cccc1NC(=O)CCCSc1nnnn1C [Compound 42, N-(2-Methyl-3-chlorophenyl)-4-(1-methyl-1,2,3,4-tetrazol-5-yl)thio-butyramide]				10 to 50	
CC(C)N(C(=O)CCCCc1nnnn1-c1ccccc1)C1CCCCC1 [Compound 50, N-Isopropyl-N-cyclohexyl-5-(1-phenyl-1,2,3,4-tetrazol-5-yl)valeramide]					++ (more than 60%)
Cn1nnnc1SCCCC(=O)Nc1ccc([N+](=O)[O-])cc1 [Compound 43, N-(4-Nitrophenyl)-4-(1-methyl-1,2,3,4-tetrazol-5-yl)thio-butyramide]				10 to 50	
Cn1nnnc1SCCCC(=O)Nc1ccccn1 [Compound 27, N-(2-Pyridyl)-4-(1-methyl-1,2,3,4-tetrazol-5-yl)thio-butyramide]		10 to 50	10 to 50	10 to 50	
CCN(CC)C(=O)CCCCc1nnn[nH]1 [Compound 52, N,N-Diethyl-5-(1,2,3,4-tetrazol-5-yl)-valeramide]				10 to 50	+ (30 to less than 60%)
COC(=O)CCCCc1nnnn1C1CCCCC1 [Compound 54, Methyl 5-(1-cyclohexyl-1,2,3,4-tetrazol-5-yl)valerate]				10 to 50	
CCCCn1nnnc1CSCCC(=O)NCC [Compound 15, N-Ethyl-3-(1-butyl-1,2,3,4-tetrazol-5-yl)-methylthio-propionamide]					++ (more than 60%)
CCN(C(=O)CCCSc1nnnn1C)c1ccccn1 [Compound 10, N-Ethyl-N-(2-pyridyl)-4-(1-methyl-1,2,3,4-tetrazol-5-yl)thio-butyramide]	> 500		10 to 50		
CCN(C(=O)CCCCc1nnnn1C)C1CCCCC1 [Compound 51, N-Ethyl-N-cyclohexyl-5-(1-methyl-1,2,3,4-tetrazol-5-yl)valeramide]				10 to 50	+ (30 to less than 60%)
CCCCCCNC(=O)CCCCc1nnnn1-c1ccccc1 [Compound 48, N-(n-Hexyl)-5-(1-phenyl-1,2,3,4-tetrazol-5-yl)valeramide]					+ (30 to less than 60%)

Structure (SMILES)	LD50 (Acute Toxicity) [mg/kg]	inhibition in vivo at 100 mg/kg (gastric juice secretion; [1]) [%]	inhibition in vivo at 100 mg/kg (gastric juice secretion; [2]) [%]	inhibition in vivo at 100 mg/kg (gastric juice secretion; [3]) [%]	Inhibitory ratio of stress ulcer (Stress Ulcer)
Cn1nnnc1SCCCC(=O)N(Cc1ccccc1)Cc1ccccc1 [Compound 22, N,N-Dibenzyl-4-(1-methyl-1,2,3,4-tetrazol-5-yl)thio-butyramide]		< 10	10 to 50	10 to 50	
CCN(CC)C(=O)CCCCc1nnnn1C [Compound 34, N,N-Diethyl-5-(1-methyl-1,2,3,4-tetrazol-5-yl)valeramide]		10 to 50	10 to 50	10 to 50	+ (30 to less than 60%)
Cn1nnnc1SCCCC(=O)N(CCO)c1ccccc1 [Compound 40, N-(2-Hydroxyethyl)-N-phenyl-4-(1-methyl-1,2,3,4-tetrazol-5-yl)thio-butyramide]				10 to 50	
Cn1nnnc1SCCCC(=O)NCc1ccco1 [Compound 13, N-Furfuryl-4-(1-methyl-1,2,3,4-tetrazol-5-yl)thio-butyramide]	> 500	10 to 50	10 to 50	10 to 50	
Cn1nnnc1SCCCC(=O)N1CCCCC1 [Compound 25, 1-Methyl-5-(3-piperidylcarbonylpropyl)thio-1,2,3,4-tetrazole]		10 to 50	10 to 50	10 to 50	
Cn1nnnc1SCCCC(=O)O [Compound 38, 4-(1-methyl-1,2,3,4-tetrazol-5-yl)thiobutyric acid]				10 to 50	
CCN(CC)C(=O)CCCSCc1nnnn1CC [Compound 18, N,N-Diethyl-4-(1-ethyl-1,2,3,4-tetrazol-5-yl)methylthio-butyramide]					+ (30 to less than 60%)
CCN(C(=O)CCSCc1nnnn1CC)C1CCCCC1 [Compound 36, N-Ethyl-N-cyclohexyl-3-(1-ethyl-1,2,3,4-tetrazol-5-yl)methylthio-propionamide]				> 50	
CC(C)N(C(=O)CCCSc1nnnn1C)C1CCCCC1 [Compound 24, N-Isopropyl-N-cyclohexyl-4-(1-methyl-1,2,3,4-tetrazol-5-yl)thio-butyramide]		< 10	10 to 50	> 50	
CCN(CC)C(=O)CCCCc1nnnn1-c1ccccc1 [Compound 35, N,N-Diethyl-5-(1-phenyl-1,2,3,4-tetrazol-5-yl)valeramide]		10 to 50	10 to 50	10 to 50	+ (30 to less than 60%)
CCN(C(=O)CCCCc1nnnn1C1CCCCC1)C1CCCCC1 [Compound 23, N-Ethyl-N-cyclohexyl-5-(1-cyclohexyl-1,2,3,4-tetrazol-5-yl)valeramide]		< 10	10 to 50	10 to 50	+ (30 to less than 60%)
CC(C)N(C(=O)CCCSc1nnnn1C)C(C)C [Compound 21, N,N-Diisopropyl-4-(1-methyl-1,2,3,4-tetrazol-5-yl)thio-butyramide]		< 10	10 to 50	> 50	
Cn1nnnc1SCCCC(=O)N1CCOCC1 [Compound 33, 1-Methyl-5-(3-morpholinocarbonylpropyl)thio-1,2,3,4-tetrazole]		10 to 50	10 to 50	10 to 50	
CCN(C(=O)CCCSc1nnnn1C)C1CCCCCC1 [Compound 20, N-Ethyl-N-cycloheptyl-4-(1-methyl-1,2,3,4-tetrazol-5-yl)thio-butyramide]		< 10	10 to 50	> 50	
CCN(CC1CCCCC1)C(=O)CCCSc1nnnn1C [Compound 30, N-Ethyl-N-cyclohexylmethyl-4-(1-methyl-1,2,3,4-tetrazol-5-yl)thio-butyramide]		10 to 50	10 to 50	> 50	
CCN(C(=O)CCCSc1nnnn1-c1ccccc1)C1CCCCC1 [Compound 31, N-Ethyl-N-cyclohexyl-4-(1-phenyl-1,2,3,4-tetrazol-5-yl)thio-butyramide]		10 to 50	10 to 50	> 50	
